Assays:
Assay type in all cases: in vivo, rat
[1] = tested on: genetically obese adult female Zucker rats (genotype fa/fa); test: Plasma lipoproteinogram (polyacrylamide gel electrophoresis), obese rats; conditions: 10 micromols per kg daily, 10 days
Protocol: FIG. 2 is a lipoproteinogram analogous to the one of FIG. 1, but using obese rats (Zucker fa/fa).
(§1) Since treatment with oleoyl-estrone deeply modifies the plasma lipids of rats, an experiment was carried out to determine whether the oral administration of oleoyl-estrone modifies the plasma lipidogram of lean and genetically obese rats. Two groups of animals were used: (1) normal-weight adult female Zucker rats (genotype Fa/?), and (2) genetically obese adult female Zucker rats (genotype fa/fa). In the first group one rat was killed to obtain a sample of blood (intact control); in the second group (obese rats), two intact controls were killed and their blood recovered. All the remaining rats were kept under standard housing conditions, with free access to food and water; the rats receivid a daily gavage of 0.2 ml of sunflower oil by means of a stomach tube; in three rats form each group, the oil was supplemented with enough oleoyl-estrone to achieve a daily dose of 10 micromols per kg of rat weight. After 10 days of treatment, the rats were killed, and their blood was recovered. All blood samples were centrifuged to obtain plasma; plasma proteins were analysed by means of polyacrylamide gel electroforesis (kit Lipofilm, Sebia, Issy les Molineaux, France), lipids were stained with Sudan black.

lean rats = test: Lipoprotein separation by ultracentrifugation and lipid composition analysis, lean rats; conditions: 10 μmol/kg daily, vs controls
Text: Codes in bars are: triacylglycerols=white; phospholipids=lines; cholesterol=dots.
Lipoproteins in fresh plasma were fractionated by differential ultracentrifugation in known density media obtained through the addition of KBr. […] These fractions were used for the analysis of protein and lipidic components, and for the estimation of particle size.
Whole plasma, lipoprotein fractions and LPdp were used for the analysis of protein and lipid content. Total protein was estimated with the Bradford method (cf. M. M. Bradford, Anal. Biochem. 1976, vol. 72, pp. 248-254). Total cholesterol was measured in saline with a high-performance cholesterol kit. Triacylglycerol concentrations were measured with a commercial kit and the results were corrected for free glycerol. Phospholipid was quantified by a choline-based method. […] Recoveries for all plasma components (i.e. deviations from the values in whole plasma and those derived from the sum of its content in lipoprotein fractions) were lowest for triacylglycerols (88±3%) and highest for protein (92±3%). Sudan black-prestained serum samples were sepparated by polyacrylamide gel electrophoresis. Separation of lipoprotein classes through centrifugation allowed a detailed analysis of lipoprotein composition as shown in FIGS. 3 and 4.

[2] = tested on: normal-weight adult female Zucker rats (genotype Fa/?); test: Plasma lipoproteinogram (polyacrylamide gel electrophoresis), normal-weight rats; conditions: 10 micromols per kg daily, 10 days
Protocol: FIG. 1 is a lipoproteinogram of plasma from normal-weight rats (Zucker Fa/?), showing the effect of oleoyl-estrone on lipoprotein distribution. I=intact; C=control; T=treated with oleoyl-estrone; HDL=high-density lipoproteins; LDL=low-density lipoproteins; VLDL=very low-density lipoproteins.
as §1, with “All the remaining rats were kept under standard housing conditions, with free access to food and water; the rats receivid a daily gavage of 0.2 ml of sunflower oil by means of a stomach tube; in three rats form each group, the oil was supplemented with enough oleoyl-estrone to achieve a daily dose of 10 micromols per kg of rat weight. After 10 days of treatment, the rats were killed, and their blood was recovered.” left out

Wistar female rats = test: Dose dependence of plasma parameters after 10 days of daily oral gavage in normal Wistar female rats; conditions: for plasma 3-hydroxybutyrate / plasma glucose / plasma insulin / plasma non-esterified fatty acids / plasma total cholesterol / plasma triacylglycerols: female Wistar rats, 10 days
Protocol: Eight groups of 6 normal Wistar female rats each were used. The animals were kept under standard housing conditions and had free access to pellet food and tap water. All the rats received a daily oral gavage of 0.2 ml of sunflower oil through a stomach tube. This oil contained different amounts of oleoyl-estrone so that the rats received daily doses of 0, 0.2, 0.5, 1, 2, 5, 10 or 20 micromols per kg of body weight. After 10 days of daily gavages, the rats were killed and their blood extracted and used to obtain plasma through centrifugation. Plasma samples were used for the analysis of glucose, total cholesterol and triacylglycerols by means of a dry-strip procedure (Spotchem, Menarini, Firenze, Italy), the levels of 3-hydroxybutyrate were measured with the kit 907979 from Boehringer Mannheim (Mannheim, Germany), and non-esterified fatty acids with the kit 1383175 from the same company. Insulin levels were measured through radioimmunoassay (rat insulin kit, Amersham, Amersham, United Kingdom).

[3] = Wistar female rats, doses 0.2-20 micromols per kg, ANOVA P<0.05

CCCCCCCC/C=C\CCCCCCCC(=O)Oc1ccc2c(c1)CC[C@@H]1[C@@H]2CC[C@]2(C)C(=O)CC[C@@H]12 [oleoyl-estrone]
lipoprotein pattern in lipoproteinogram [1]: this same pattern is repeated, but there is an additional wide band between the LDL and VLDL zones | change in lipoprotein composition (lean rats): little change | change of cholesterol in the HDL fraction (lean rats): decreased most | change of total phospholipid levels in lipoprotein-depleted plasma (lean rats): decrease | change of VLDLs in lipoproteinogram [2]: marked increase | change of high density lipoproteins in lipoproteinogram [2]: marked reduction | doses giving lower insulin values than controls (Wistar female rats; Wistar female rats, 10 days oral gavage): ≥ 1 micromol/kg and day | change in circulating levels of 3-hydroxybutyrate (Wistar female rats; [3]): no globally significant changes | change in circulating levels of glucose (Wistar female rats; [3]): no globally significant changes | change in circulating levels of non-esterified fatty acids (Wistar female rats; [3]): no globally significant changes | change in circulating levels of triacylglycerols (Wistar female rats; [3]): no globally significant changes | drop in insulin levels (Wistar female rats; Wistar female rats, vs controls): significant | plasma 3-hydroxybutyrate (Wistar female rats; daily gavage 0.2 μmol/kg · d): 291 ± 40 µM | plasma glucose (Wistar female rats; daily gavage 0.2 μmol/kg · d): 6.35 ± 0.47 mM | plasma insulin (Wistar female rats; daily gavage 0.2 μmol/kg · d): 0.624 nM | plasma non-esterified fatty acids (Wistar female rats; daily gavage 0.2 μmol/kg · d): 184 ± 31 µM | plasma total cholesterol (Wistar female rats; daily gavage 0.2 μmol/kg · d): 1.21 ± 0.12 mM | plasma triacylglycerols (Wistar female rats; daily gavage 0.2 μmol/kg · d): 1.57 ± 0.43 mM | plasma 3-hydroxybutyrate (Wistar female rats; daily gavage 0.5 μmol/kg · d): 189 ± 41 µM | plasma glucose (Wistar female rats; daily gavage 0.5 μmol/kg · d): 5.74 ± 0.31 mM | plasma insulin (Wistar female rats; daily gavage 0.5 μmol/kg · d): 0.497 ± 0.067 nM | plasma non-esterified fatty acids (Wistar female rats; daily gavage 0.5 μmol/kg · d): 273 ± 47 µM | plasma total cholesterol (Wistar female rats; daily gavage 0.5 μmol/kg · d): 1.02 ± 0.08 mM | plasma triacylglycerols (Wistar female rats; daily gavage 0.5 μmol/kg · d): 1.79 ± 0.23 mM | plasma 3-hydroxybutyrate (Wistar female rats; daily gavage 1 μmol/kg · d): 305 ± 56 µM | plasma glucose (Wistar female rats; daily gavage 1 μmol/kg · d): 5.71 ± 0.46 mM | plasma insulin (Wistar female rats; daily gavage 1 μmol/kg · d): 0.241 ± 0.044 nM | plasma non-esterified fatty acids (Wistar female rats; daily gavage 1 μmol/kg · d): 147 ± 30 µM | plasma total cholesterol (Wistar female rats; daily gavage 1 μmol/kg · d): 1.13 ± 0.15 mM | plasma triacylglycerols (Wistar female rats; daily gavage 1 μmol/kg · d): 1.26 ± 0.26 mM | plasma 3-hydroxybutyrate (Wistar female rats; daily gavage 2 μmol/kg · d): 263 ± 27 µM | plasma glucose (Wistar female rats; daily gavage 2 μmol/kg · d): 5.76 ± 0.20 mM | plasma insulin (Wistar female rats; daily gavage 2 μmol/kg · d): 0.280 ± 0.036 nM | plasma non-esterified fatty acids (Wistar female rats; daily gavage 2 μmol/kg · d): 281 ± 44 µM | plasma total cholesterol (Wistar female rats; daily gavage 2 μmol/kg · d): 1.01 ± 0.27 mM | plasma triacylglycerols (Wistar female rats; daily gavage 2 μmol/kg · d): 1.70 ± 0.11 mM | plasma 3-hydroxybutyrate (Wistar female rats; daily gavage 5 μmol/kg · d): 300 ± 64 µM | plasma glucose (Wistar female rats; daily gavage 5 μmol/kg · d): 5.64 ± 0.21 mM | plasma insulin (Wistar female rats; daily gavage 5 μmol/kg · d): 0.275 ± 0.053 nM | plasma non-esterified fatty acids (Wistar female rats; daily gavage 5 μmol/kg · d): 213 ± 48 µM | plasma total cholesterol (Wistar female rats; daily gavage 5 μmol/kg · d): 1.03 ± 0.13 mM | plasma triacylglycerols (Wistar female rats; daily gavage 5 μmol/kg · d): 1.91 ± 0.33 mM | plasma 3-hydroxybutyrate (Wistar female rats; daily gavage 10 μmol/kg · d): 301 ± 42 µM | plasma glucose (Wistar female rats; daily gavage 10 μmol/kg · d): 5.90 ± 0.31 mM | plasma insulin (Wistar female rats; daily gavage 10 μmol/kg · d): 0.262 ± 0.050 nM | plasma non-esterified fatty acids (Wistar female rats; daily gavage 10 μmol/kg · d): 152 ± 24 µM | plasma total cholesterol (Wistar female rats; daily gavage 10 μmol/kg · d): 0.66 ± 0.09 mM | plasma triacylglycerols (Wistar female rats; daily gavage 10 μmol/kg · d): 1.39 ± 0.14 mM | plasma 3-hydroxybutyrate (Wistar female rats; daily gavage 20 μmol/kg · d): 237 ± 47 µM | plasma glucose (Wistar female rats; daily gavage 20 μmol/kg · d): 5.62 ± 0.20 mM | plasma insulin (Wistar female rats; daily gavage 20 μmol/kg · d): 0.223 ± 0.041 nM | plasma non-esterified fatty acids (Wistar female rats; daily gavage 20 μmol/kg · d): 122 ± 39 µM | plasma total cholesterol (Wistar female rats; daily gavage 20 μmol/kg · d): 0.53 ± 0.05 mM | plasma triacylglycerols (Wistar female rats; daily gavage 20 μmol/kg · d): 0.92 ± 0.11 mM

Reference: patent publication US20040138193A1, “Oestrogen fatty acid monoester as a hypolipidaemic and antidiabetic agent” (priority 2001, published 2004)
